From US20120157472A1, “METHOD FOR TREATING COLORECTAL CANCER” (BOEHRINGER INGELHEIM INTERNATIONAL GMBH, priority 2009, published 2012) come the findings set out here.

“Also recorded” adds a separate entry of the source.

Data set [1] deals with HT-29 colorectal xenografts. Description: Tumor growth inhibition in mice with HT-29 colorectal xenografts. It is filed as in vivo. The note with it: single agent, daily 10 mg/kg p.o., HT-29 xenografts, sub-optimal dose. Here is the method: (§1) A panel of 14 well-characterized human colorectal cancer cell lines were used to characterize the in vitro effects of BIBF 1120 (B1), BIBW 2992 (B2) and their combinations. The antitumor effects of the 2 drugs were evaluated in mice with HT-29 colorectal xenografts.
The tumor growth inhibitory activities of B1 and B2 were determined for HT-29 xenografts after daily drug administration (10 mg/kg p.o.) or, for control animals, by oral administration of the solvent. […] Since the studies were designed to detect additive or synergistic interactions between the two drugs in subsequent experiments, only sub-optimal doses were used in these studies. Each group represents at least seven mice.
The tumor growth inhibitory activities of B1 and B2 were determined for HT-29 xenografts after daily drug administration (10 mg/kg p.o.) or, for control animals, by oral administration of the solvent.

Data set [2] deals with angiogenesis. Briefly: Angiogenesis inhibition by CD31 staining. The format is in vivo.
Data set [3] concerns human colorectal cancer cell lines. Description: In vitro effects on human colorectal cancer cell lines. It is filed as cell-based. The note with it: for cytotoxic activity: conclusion, single agent; for growth inhibition / cell cycle effect: exposure of colorectal cancer cells to single agent. Here is the method:
as §1

On to `COC(=O)c1ccc2c(c1)NC(=O)/C2=C(\Nc1ccc(N(C)C(=O)CN2CCN(C)CC2)cc1)c1ccccc1` [B1, 3-Z-[1-(4-(N-((4-methyl-piperazin-1-yl)-methylcarbonyl)-N-methyl-amino)-anilino)-1-phenyl-methylene]-6-methoxycarbonyl-2-indolinone], for which the “tumor growth inhibitory activity (tumor volume over treatment time)” value in data set [1] is recorded as “exhibit growth inhibitor activity”. Further, in data set [2], the inhibition of angiogenesis entry is “inhibited angiogenesis; also recorded: antiangiogenic activity”. Further, in data set [3], the cytotoxic activity entry is “cytotoxic” and the “growth inhibition / cell cycle effect” value is “growth inhibition linked to extensive G1 arrest”.

Turning to `CN(C)C/C=C/C(=O)Nc1cc2c(Nc3ccc(F)c(Cl)c3)ncnc2cc1O[C@H]1CCOC1` [B2, 4-[(3-chloro-4-fluorophenyl)amino]-6-{[4-(N,N-dimethylamino)-1-oxo-2-buten-1-yl]amino}-7-((S)-tetrahydrofuran-3-yloxy)-quinazoline], the “tumor growth inhibitory activity (tumor volume over treatment time)” value in data set [1] is on record as “exhibit growth inhibitor activity”. Besides, the inhibition of angiogenesis result in data set [2] was “inhibited angiogenesis; also recorded: antiangiogenic activity”. In data set [3], the cytotoxic activity entry is recorded as “cytotoxic” and the “growth inhibition / cell cycle effect” value was “growth inhibition linked to extensive G1 arrest”.
